In general, IC50 refers to the point on the concentration scale where inhibition reaches its midpoint.

The nature of data set [1]: Metabolic stability in Sprague-Dawley rat microsomes assessed as degradation in presence of NADPH at 10 uM measured up to 60 mins by HPLC analysis. The format is ADME, Microsome.
A short description of data set [2]: Metabolic stability in Sprague-Dawley rat microsomes assessed as degradation in absence of NADPH at 10 uM measured up to 60 mins by HPLC analysis. The format is ADME, Microsome.
The test system of data set [3] is HCT-116. As to the kind of experiment: Antiproliferative activity against human HCT-116 cells assessed as cell proliferation at 10 uM measured after 3 days incubation followed by incubated 5 hrs with [3H]-thymidine by 3H-thymidine incorporation assay relative to control. The format is functional. The settings on record: HCT-116, 72 h, time 3 day, read-out: Activity. (In general: Uptake of a labelled nucleoside into DNA is a usual measure of proliferation.)

Data set [4] relates to MDA-MB-231. Description: Antiproliferative activity against human MDA-MB-231 cells assessed as cell proliferation measured after 3 days incubation followed by incubated 5 hrs with [3H]-thymidine by 3H-thymidine incorporation assay. The format is functional, cell-based.
Data set [5] relates to HCT-116. Description: Antiproliferative activity against human HCT-116 cells assessed as cell proliferation measured after 3 days incubation followed by incubated 5 hrs with [3H]-thymidine by 3H-thymidine incorporation assay. The format is functional, cell-based.
The subject of data set [6] is MDA-MB-231. Description: Antiproliferative activity against human MDA-MB-231 cells assessed as cell proliferation at 10 uM measured after 3 days incubation followed by incubated 5 hrs with [3H]-thymidine by 3H-thymidine incorporation assay relative to control. The format is functional. The settings on record: MDA-MB-231, 72 h, time 3 day, read-out: Activity.
In the next data set the test system is Bacillus cereus. As to the kind of experiment: Inhibition of Bacillus cereus phosphatidylcholine specific phospholipase C (PC-PLC BC) assessed as enzyme activity by measuring formation of resorufin fluorophore 10 uM by Amplex-Red based fluorescence assay relative to control. On the set-up: scale not given: the % may be the effect or the level left.
The nature of data set [7]: Metabolic stability in Sprague-Dawley rat microsomes assessed as degradation in presence of NADPH at 10 uM measured after 1 hr by HPLC analysis. The format is ADME, Microsome.

Consider `CCOc1ccc2ccc(=O)oc2c1` [ETHOXYCOUMARIN], for which the Stability entry is reported as “Unstable” in data set [1] (microsomes, 1 h, 10 µM) and “Stable” in data set [2] (microsomes, 1 h, 10 µM).
`O=C(NO)c1cc(NCc2cccc(Br)c2)ccc1N1CCOCC1`: the growth at 10 µM with HCT-116 [3] turned out to be 1.9%. Besides, the half-inhibitory concentration (IC50) in the data set with MDA-MB-231 [4] was 3.3 µM; in the data set with HCT-116 [5] it was 5.8 µM.
`CN(Cc1ccccc1Cl)c1ccc(N2CCOCC2)c(C(=O)O)c1`: the growth at 10 µM was found to be 95.5% in the data set on MDA-MB-231 [6] and 87.8% with HCT-116 [3]. In addition, the % remaining at 1 h, 10 µM in data set [2] (Sprague-Dawley, rat microsomes) stood at 94%.
For the compound `O=C(O)c1ccc(NCc2ccccc2Cl)cc1N1CCOCC1`, the Activity in the data set on Bacillus cereus is 50.8%. Moreover, the growth at 10 µM in the data set on MDA-MB-231 [6] was 88%; with HCT-116 [3], 87.6%. For the same compound, the Stability entry in data set [7] is given as “Stable”.
Consider `O=C(O)c1cc(NCc2ccc(Cl)cc2)ccc1C1CCOCC1`, for which the Activity in the data set on Bacillus cereus came out at 112%. Further, the results for the growth at 10 µM in the data set with MDA-MB-231 [6] and in the data set with HCT-116 [3] were 115% and 101%, respectively.
The corresponding values for `O=C(O)c1cc(NCc2ccccc2Br)ccc1C1CCOCC1` are 116%, 108% and 99.5%.
Regarding `O=C(O)c1cc(NCc2ccccc2Cl)ccc1N1CCOCC1`, in data set [1] (Sprague-Dawley, rat microsomes, read-out: Drug degradation), the metabolised at 1 h, 10 µM is 17%.
Take `O=C(NO)c1ccc(NCc2cccc(F)c2)cc1N1CCOCC1`: the Activity in the data set with Bacillus cereus came to 49.1%. The figures for the growth at 10 µM in the data set on MDA-MB-231 [6] and in the data set on HCT-116 [3] were 76.2% and 84.3%, respectively.
Take `COC(=O)c1ccc(NCc2ccccc2Cl)cc1N1CCOCC1`: in the data set with Bacillus cereus, the Activity worked out at 75.9%. Besides, the growth at 10 µM was 70.4% with MDA-MB-231 [6] and 43.2% with HCT-116 [3].
The corresponding values for `COC(=O)c1ccc(NCc2cccc(Cl)c2)cc1N1CCOCC1` are 55.8%, 68.9% and 44.3%.
The corresponding values for `O=C(NO)c1cc(NCc2ccccc2F)ccc1C1CCOCC1` are 94%, 88% and 98.6%.
Regarding `COc1ccc(CNc2ccc(C(=O)O)c(N3CCOCC3)c2)cc1`, the Activity in the data set on Bacillus cereus is 106%. Further, the growth at 10 µM is 110% in the data set on MDA-MB-231 [6] and 105% in the data set on HCT-116 [3].
On to `O=C(O)c1cc(NCc2cccc(Br)c2)ccc1C1CCOCC1`, for which the Activity in the data set with Bacillus cereus was 113%. The figures for the growth at 10 µM in the data set on MDA-MB-231 [6] and in the data set on HCT-116 [3] were 107% and 104%, respectively.
Take `O=C(NO)c1cc(NCc2ccccc2Cl)ccc1N1CCOCC1`: the growth at 10 µM came out at 11.7% with MDA-MB-231 [6] and 2% with HCT-116 [3]. Besides, the half-maximal inhibitory concentration (IC50) in the data set on MDA-MB-231 [4] came out at 2.9 µM; with HCT-116 [5], 4.9 µM.
As for `COC(=O)c1cc(NCc2ccc(Br)cc2)ccc1C1CCOCC1`, in the data set with Bacillus cereus, the Activity is 110%. The growth at 10 µM turned out to be 79.6% in the data set on MDA-MB-231 [6] and 61.2% in the data set with HCT-116 [3].
As to `O=C(O)c1ccc(NCc2ccc(Cl)cc2)cc1N1CCOCC1`, the Activity in the data set on Bacillus cereus turned out to be 32.4%. Besides, the values for the growth at 10 µM in the data set on MDA-MB-231 [6] and in the data set with HCT-116 [3] were 88.4% and 88.2%, respectively.
In the same order, the values of `O=C(NO)c1cc(NCc2ccccc2Cl)ccc1C1CCOCC1` are 82.8%, 86.8% and 86.7%.
In the case of `O=C(O)c1cc(NCc2cccc(F)c2)ccc1C1CCOCC1`, in the data set on Bacillus cereus, the Activity was found to be 36.2%. Also, the growth at 10 µM turned out to be 104% with MDA-MB-231 [6] and 103% in the data set with HCT-116 [3].
In the same order, the values of `COc1ccccc1CNc1ccc(C2CCOCC2)c(C(=O)NO)c1` are 80.7%, 80.7% and 93.3%.
Regarding `O=C(NO)c1cc(NCc2ccccc2Br)ccc1C1CCOCC1`, the Activity in the data set with Bacillus cereus worked out at 75.5%. Moreover, the growth at 10 µM with MDA-MB-231 [6] was 74%; with HCT-116 [3], 78.3%.
In the same order, the values of `COC(=O)c1ccc(NCc2ccccc2F)cc1N1CCOCC1` are 105%, 92.8% and 67.4%.
With `COC(=O)c1ccc(NCc2ccc(F)cc2)cc1N1CCOCC1`, in the data set with Bacillus cereus, the Activity stood at 80.3%. Besides, the results for the growth at 10 µM with MDA-MB-231 [6] and in the data set on HCT-116 [3] were 81.9% and 65%, respectively.
In the same order, the values of `O=C(NO)c1ccc(NCc2ccccc2)cc1N1CCOCC1` are 43.4%, 85.7% and 89.7%.
In the case of `O=C(O)c1cc(NCc2ccccc2Cl)ccc1C1CCOCC1`, the Activity in the data set with Bacillus cereus was 107%. Moreover, the results for the growth at 10 µM with MDA-MB-231 [6] and in the data set with HCT-116 [3] were 111% and 101%, respectively. Moreover, in data set [7], the Stability result is on record as “Stable”.
Regarding `COc1ccccc1CNc1ccc(C(=O)NO)c(N2CCOCC2)c1`, the Activity with Bacillus cereus was 46.9%. For the same compound, the figures for the growth at 10 µM with MDA-MB-231 [6] and with HCT-116 [3] were 70.7% and 83.2%, respectively.
In the same order, the values of `COC(=O)c1cc(NCc2cccc(Cl)c2)ccc1C1CCOCC1` are 104%, 48.3% and 37.2%.
In the same order, the values of `COC(=O)c1cc(NCc2cccc(F)c2)ccc1C1CCOCC1` are 44.5%, 41.3% and 29.2%.
Consider `O=C(O)c1ccc(NCc2ccccc2Br)cc1N1CCOCC1`, for which, in the data set with Bacillus cereus, the Activity came to 95.2%. Besides, the growth at 10 µM was 90% with MDA-MB-231 [6] and 94.4% in the data set with HCT-116 [3].
Consider `O=C(O)c1ccc(NCc2cccc(F)c2)cc1N1CCOCC1`, for which the Activity in the data set on Bacillus cereus is 84.9%. The growth at 10 µM in the data set on MDA-MB-231 [6] turned out to be 92.4%; in the data set on HCT-116 [3], 93.3%.
In the same order, the values of `O=C(NO)c1ccc(NCc2ccccc2Cl)cc1N1CCOCC1` are 54.1%, 41.8% and 68.4%.
In the same order, the values of `COC(=O)c1ccc(NCc2cccc(Br)c2)cc1N1CCOCC1` are 97.4%, 62.9% and 34.7%.
Turning to `CN(Cc1ccccc1Cl)c1ccc(N2CCOCC2)c(C(=O)NO)c1`, the growth at 10 µM in the data set with MDA-MB-231 [6] is 4.3%; with HCT-116 [3], 4.8%. Also, the results for the half-inhibitory concentration (IC50) in the data set on MDA-MB-231 [4] and with HCT-116 [5] were 1.1 µM and 3.4 µM, respectively.
Consider `O=C(O)c1ccc(NCc2ccc(F)cc2)cc1N1CCOCC1`, for which the Activity in the data set on Bacillus cereus was found to be 62.4%. Besides, the growth at 10 µM in the data set on MDA-MB-231 [6] is 94.8%; in the data set on HCT-116 [3], 91.6%.

The values above are taken from ChEMBL document CHEMBL6182838, “Structure-activity relationship expansion and microsomal stability assessment of the 2-morpholinobenzoic acid scaffold as antiproliferative phosphatidylcholine-specific phospholipase C inhibitors” (RSC Med Chem, 2025).
